In paper PMC4955205, “EctD-mediated biotransformation of the chemical chaperone ectoine into hydroxyectoine and its mechanosensitive channel-independent excretion” (Microbial Cell Factories, 2016):

Tests used:
Assay type in all cases: cell-based
EctD (P. lautus) = target: T1, EctD (P. lautus) (Paenibacillus lautus, UniProt A0A385TC02); assay: whole-cell biotransformation in E. coli FF4169, HPLC; conditions: 10 mM ectoine in medium, MMA with 0.4 M NaCl, 37 °C, 24 h; Fe(II) and 2-oxoglutarate of the cell
T1 construct: gene thpD; full length, Strep-tag II, codon-optimized gene, plasmid pMP43, expressed in E. coli FF4169
T1 sequence (A0A385TC02 1-302): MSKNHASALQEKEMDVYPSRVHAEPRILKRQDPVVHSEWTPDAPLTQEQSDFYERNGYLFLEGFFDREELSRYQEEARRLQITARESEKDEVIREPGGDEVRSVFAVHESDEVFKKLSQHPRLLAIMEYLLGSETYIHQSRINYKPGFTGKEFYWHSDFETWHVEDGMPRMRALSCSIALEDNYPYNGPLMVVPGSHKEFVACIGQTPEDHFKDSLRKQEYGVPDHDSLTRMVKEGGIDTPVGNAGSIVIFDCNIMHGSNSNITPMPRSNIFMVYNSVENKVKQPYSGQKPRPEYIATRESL

EctD (H. elongata) = target: T2, EctD (H. elongata) (Halomonas elongata, UniProt E1VA04); assay: as above; conditions: 10 mM ectoine in medium, MMA with 0.4 M NaCl, 37 °C, 24 h; Fe(II) and 2-oxoglutarate of the cell
T2 construct: full length, Strep-tag II, plasmid pMP32, expressed in E. coli FF4169
T2 sequence (E1VA04 1-332): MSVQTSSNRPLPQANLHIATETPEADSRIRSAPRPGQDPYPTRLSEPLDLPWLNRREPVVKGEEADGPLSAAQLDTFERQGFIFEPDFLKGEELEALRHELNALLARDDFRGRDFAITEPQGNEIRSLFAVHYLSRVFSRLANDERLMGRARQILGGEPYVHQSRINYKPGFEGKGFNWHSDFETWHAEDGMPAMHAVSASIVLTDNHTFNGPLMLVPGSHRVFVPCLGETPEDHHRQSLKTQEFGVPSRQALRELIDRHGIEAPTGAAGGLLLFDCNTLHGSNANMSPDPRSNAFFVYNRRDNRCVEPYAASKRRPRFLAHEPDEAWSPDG

EctD (S. alaskensis) = target: T3, EctD (S. alaskensis) (Sphingopyxis alaskensis, UniProt Q1GNW5); assay: as above; conditions: 10 mM ectoine in medium, MMA with 0.4 M NaCl, 37 °C, 24 h; Fe(II) and 2-oxoglutarate of the cell
T3 construct: full length, Strep-tag II, plasmid pMP40, expressed in E. coli FF4169; homodimer
T3 sequence (Q1GNW5 1-306): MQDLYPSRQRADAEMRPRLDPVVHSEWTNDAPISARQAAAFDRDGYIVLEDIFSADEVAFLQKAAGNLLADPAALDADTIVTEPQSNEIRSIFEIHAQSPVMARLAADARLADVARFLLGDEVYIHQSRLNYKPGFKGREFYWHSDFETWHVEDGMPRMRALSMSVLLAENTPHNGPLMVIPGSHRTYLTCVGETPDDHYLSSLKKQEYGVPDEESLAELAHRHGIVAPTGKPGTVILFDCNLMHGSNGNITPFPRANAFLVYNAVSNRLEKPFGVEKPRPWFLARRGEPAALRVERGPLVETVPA

EctD (A. ehrlichii) = target: T4, EctD (A. ehrlichii) (Alkalilimnicola ehrlichii, UniProt A0A3E0X329); assay: as above; conditions: 10 mM ectoine in medium, MMA with 0.4 M NaCl, 37 °C, 24 h; Fe(II) and 2-oxoglutarate of the cell
T4 construct: gene CAL65_03675; full length, Strep-tag II, codon-optimized gene, plasmid pMP44, expressed in E. coli FF4169
T4 sequence (A0A3E0X329 1-303): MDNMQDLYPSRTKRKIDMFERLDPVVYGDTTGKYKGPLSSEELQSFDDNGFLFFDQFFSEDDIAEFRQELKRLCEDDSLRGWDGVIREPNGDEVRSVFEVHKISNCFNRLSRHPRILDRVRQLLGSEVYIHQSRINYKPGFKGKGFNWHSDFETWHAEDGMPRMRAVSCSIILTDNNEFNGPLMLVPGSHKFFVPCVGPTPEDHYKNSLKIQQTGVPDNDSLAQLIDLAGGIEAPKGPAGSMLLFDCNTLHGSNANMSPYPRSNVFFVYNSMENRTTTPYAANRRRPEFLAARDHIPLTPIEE

ProU ABC transporter = target: T5, ProU ABC transporter (Escherichia coli, UniProt P0AFM2); assay: inhibition of [[…]-14C]glycine betaine uptake, whole cells of ProP- ProU+ strain; conditions: 100 µM [1-14C]glycine betaine, MMA with 0.4 M NaCl, 37 °C, 5 min
T5 construct: gene proX; native chromosomal transporter in whole cells of a proP deletion strain; with Glycine betaine/proline betaine transport system permease protein ProW
T5 sequence (P14176 whole entry): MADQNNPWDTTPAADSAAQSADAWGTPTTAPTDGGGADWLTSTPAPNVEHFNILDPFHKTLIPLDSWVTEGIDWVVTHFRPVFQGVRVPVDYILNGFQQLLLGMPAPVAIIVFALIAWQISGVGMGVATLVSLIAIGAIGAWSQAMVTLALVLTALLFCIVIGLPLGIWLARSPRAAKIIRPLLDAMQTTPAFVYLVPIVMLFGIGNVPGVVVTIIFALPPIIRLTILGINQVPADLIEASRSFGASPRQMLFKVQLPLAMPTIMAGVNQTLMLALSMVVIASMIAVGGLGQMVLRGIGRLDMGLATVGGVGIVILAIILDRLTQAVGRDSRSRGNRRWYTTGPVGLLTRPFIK
T5 sequence (P0AFM2 22-330): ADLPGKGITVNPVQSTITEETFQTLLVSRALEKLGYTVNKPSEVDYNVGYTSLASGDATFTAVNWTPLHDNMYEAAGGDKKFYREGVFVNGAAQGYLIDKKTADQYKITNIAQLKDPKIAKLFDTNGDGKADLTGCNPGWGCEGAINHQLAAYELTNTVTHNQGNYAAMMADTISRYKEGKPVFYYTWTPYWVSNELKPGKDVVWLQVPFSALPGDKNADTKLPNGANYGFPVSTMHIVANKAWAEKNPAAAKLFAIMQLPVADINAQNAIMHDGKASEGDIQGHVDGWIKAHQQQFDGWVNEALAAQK
T5 sequence (P14175 whole entry, further chain): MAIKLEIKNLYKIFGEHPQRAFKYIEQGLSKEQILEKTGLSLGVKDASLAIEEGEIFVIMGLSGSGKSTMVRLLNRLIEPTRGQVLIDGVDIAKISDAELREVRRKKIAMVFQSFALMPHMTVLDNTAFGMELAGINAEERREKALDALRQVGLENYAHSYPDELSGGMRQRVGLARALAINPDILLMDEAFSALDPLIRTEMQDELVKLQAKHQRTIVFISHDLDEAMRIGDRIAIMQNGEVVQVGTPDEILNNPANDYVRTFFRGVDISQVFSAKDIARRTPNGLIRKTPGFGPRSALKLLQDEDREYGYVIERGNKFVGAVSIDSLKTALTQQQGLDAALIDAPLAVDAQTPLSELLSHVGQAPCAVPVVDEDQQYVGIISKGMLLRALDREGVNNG

EctD (N. maritimus) = target: T6, EctD (N. maritimus) (Nitrosopumilus maritimus, UniProt A9A2K0); assay: whole-cell biotransformation in E. coli FF4169, HPLC; conditions: 10 mM ectoine in medium, MMA with 0.4 M NaCl, 37 °C, 24 h; Fe(II) and 2-oxoglutarate of the cell
T6 construct: gene Nmar_1343; full length, Strep-tag II, codon-optimized gene, plasmid pMP45, expressed in E. coli FF4169
T6 sequence (A9A2K0 1-304): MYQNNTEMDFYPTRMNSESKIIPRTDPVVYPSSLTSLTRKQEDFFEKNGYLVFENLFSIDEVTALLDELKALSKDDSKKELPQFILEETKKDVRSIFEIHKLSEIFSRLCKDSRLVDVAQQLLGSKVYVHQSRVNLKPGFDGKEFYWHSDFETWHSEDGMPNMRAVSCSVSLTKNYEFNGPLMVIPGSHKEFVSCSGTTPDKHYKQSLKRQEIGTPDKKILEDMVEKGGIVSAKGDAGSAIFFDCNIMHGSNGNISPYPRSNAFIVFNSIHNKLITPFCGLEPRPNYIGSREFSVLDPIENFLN

[1] = target: T7, EctD (P. stutzeri A1501), ectoine hydroxylase (Stutzerimonas stutzeri, UniProt A4VFY4); assay: as above; conditions: 10 mM ectoine in medium, MMA with 0.4 M NaCl, 37 °C, 24 h; Fe(II) and 2-oxoglutarate of the cell
T7 construct: homodimer
T7 sequence (A4VFY4 1-302): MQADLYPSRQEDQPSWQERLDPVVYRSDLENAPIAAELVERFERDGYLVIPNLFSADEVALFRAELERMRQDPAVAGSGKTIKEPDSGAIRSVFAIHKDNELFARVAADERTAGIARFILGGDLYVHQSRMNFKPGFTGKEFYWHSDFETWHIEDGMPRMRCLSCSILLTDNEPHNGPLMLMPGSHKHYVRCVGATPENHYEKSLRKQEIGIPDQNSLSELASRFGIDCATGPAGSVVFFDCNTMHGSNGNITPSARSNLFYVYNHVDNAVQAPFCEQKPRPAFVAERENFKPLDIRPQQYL

ProP = target: T8, ProP (Escherichia coli, UniProt P0C0L7); assay: inhibition of [[…]-14C]glycine betaine uptake, whole cells of ProP+ ProU- strain; conditions: 100 µM [1-14C]glycine betaine, MMA with 0.4 M NaCl, 37 °C, 5 min; unlabelled glycine betaine 1 mM; labelled compound
T8 construct: native chromosomal transporter in whole cells of a proU deletion strain
T8 sequence (P0C0L7 whole entry): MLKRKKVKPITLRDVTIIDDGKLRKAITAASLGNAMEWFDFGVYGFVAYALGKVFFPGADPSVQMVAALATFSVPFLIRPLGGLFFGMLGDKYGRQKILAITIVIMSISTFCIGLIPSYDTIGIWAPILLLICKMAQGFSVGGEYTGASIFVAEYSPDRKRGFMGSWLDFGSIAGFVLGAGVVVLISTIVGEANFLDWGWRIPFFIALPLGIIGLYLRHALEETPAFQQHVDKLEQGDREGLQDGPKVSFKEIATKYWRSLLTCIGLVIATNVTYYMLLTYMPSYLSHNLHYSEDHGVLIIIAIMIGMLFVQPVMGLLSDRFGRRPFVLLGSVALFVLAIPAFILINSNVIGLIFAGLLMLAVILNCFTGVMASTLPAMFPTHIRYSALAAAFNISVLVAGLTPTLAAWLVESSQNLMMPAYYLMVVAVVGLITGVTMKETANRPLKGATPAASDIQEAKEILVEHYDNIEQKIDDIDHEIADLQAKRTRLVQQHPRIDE

SMILES	whole-cell biotransformation in E. coli FF4169, HPLC (EctD (P. lautus))	whole-cell biotransformation in E. coli FF4169, HPLC (EctD (H. elongata))	whole-cell biotransformation in E. coli FF4169, HPLC (EctD (S. alaskensis))	whole-cell biotransformation in E. coli FF4169, HPLC (EctD (A. ehrlichii))	% inhibition at 1000-fold excess (ProU ABC transporter; competitor 1000-fold excess (100 mM))	whole-cell biotransformation in E. coli FF4169, HPLC (EctD (N. maritimus))	whole-cell biotransformation in E. coli FF4169, HPLC [1]	% inhibition at tenfold excess (ProP)	% inhibition at tenfold excess (ProU ABC transporter; unlabelled glycine betaine 1 mM, labelled compound)
CC1=NCC[C@@H](C(=O)O)N1 [ectoine, (S)-2-methyl-1,4,5,6-tetrahydropyrimidine-4-carboxylic acid]	a mixture of the added ectoine and the newly produced 5-hydroxyectoine were observed	a mixture of the added ectoine and the newly produced 5-hydroxyectoine were observed	a mixture of the added ectoine and the newly produced 5-hydroxyectoine were observed	a mixture of the added ectoine and the newly produced 5-hydroxyectoine were observed	45%	almost all of the provided ectoine had been converted into 5-hydroxyectoine	almost all of the provided ectoine had been converted into 5-hydroxyectoine		
C[N+](C)(C)CC(=O)[O-] [glycine betaine]								~ 85%	~ 85%
